Measured values from publication PMC5218480 (PLoS ONE, 2017).

System: MV-4-11 cells
Experiment: Gene expression microarray analysis (Affymetrix PrimeView) and GSEA
Assay type: cell-based, human
Design: RFU PODN (11730768_x_at) / Fold change /veh PODN (11730768_x_at) / RFU LINC00158 (11744669_a_at) / Fold change /veh LINC00158 (11744669_a_at) / RFU DUSP10 (11751237_a_at) / Fold change /veh DUSP10 (11751237_a_at) / RFU ID3 (11757404_x_at) / Fold change /veh ID3 (11757404_x_at) / RFU PLEKHG5 (11737974_s_at) / Fold change /veh PLEKHG5 (11737974_s_at) / RFU LRRC4B (11730491_at) / Fold change /veh LRRC4B (11730491_at) / RFU GIMAP4 (11747438_a_at) / Fold change /veh GIMAP4 (11747438_a_at) / RFU KRT8 (11758183_x_at) / Fold change /veh KRT8 (11758183_x_at) / RFU CNN1 (11734310_a_at) / Fold change /veh CNN1 (11734310_a_at) / RFU VPS37D (11726825_at) / Fold change /veh VPS37D (11726825_at) / RFU C10orf10 (11716522_x_at) / Fold change /veh C10orf10 (11716522_x_at) / RFU KIR2DL2 /// KIR2DL4 /// KIR2DL5A /// KIR2DL5B /// KIR2DS1 /// KIR2DS2 /// KIR2DS3 /// KIR2DS4 /// KIR3DL3 /// KIR3DL3 /// KIR3DS1 (11738374_at) / Fold change /veh KIR2DL2 /// KIR2DL4 /// KIR2DL5A /// KIR2DL5B /// KIR2DS1 /// KIR2DS2 /// KIR2DS3 /// KIR2DS4 /// KIR3DL3 /// KIR3DL3 /// KIR3DS1 (11738374_at) / RFU C1QL1 (11718748_at) / Fold change /veh C1QL1 (11718748_at) / RFU TMPRSS4 (11747572_a_at) / Fold change /veh TMPRSS4 (11747572_a_at) / RFU HAMP (11756126_x_at) / Fold change /veh HAMP (11756126_x_at) / RFU RNFT2 (11725882_a_at) / Fold change /veh RNFT2 (11725882_a_at) / RFU NR4A2 (11747474_a_at) / Fold change /veh NR4A2 (11747474_a_at) / RFU ABCC12 (11746883_a_at) / Fold change /veh ABCC12 (11746883_a_at) / RFU TMEM136 (11760407_x_at) / Fold change /veh TMEM136 (11760407_x_at) / RFU CLDN22 /// WWC2 (11732394_at) / Fold change /veh CLDN22 /// WWC2 (11732394_at) / RFU HLA-DPB1 (11760878_x_at) / Fold change /veh HLA-DPB1 (11760878_x_at) / RFU SPINT1 (11716480_a_at) / Fold change /veh SPINT1 (11716480_a_at) / RFU GAP43 (11754022_s_at) / Fold change /veh GAP43 (11754022_s_at) / RFU A4GNT (11735810_at) / Fold change /veh A4GNT (11735810_at) / RFU PRB3 (11715151_x_at) / Fold change /veh PRB3 (11715151_x_at) / RFU TUBB4B (11761932_at) / Fold change /veh TUBB4B (11761932_at) / RFU CAPN14 (11732068_a_at) / Fold change /veh CAPN14 (11732068_a_at) / RFU TMCC2 (11721928_a_at) / Fold change /veh TMCC2 (11721928_a_at) / RFU IRGQ (11745062_a_at) / Fold change /veh IRGQ (11745062_a_at) / RFU FAM174B (11720279_a_at) / Fold change /veh FAM174B (11720279_a_at) / RFU TMPRSS4 (11748680_a_at) / Fold change /veh TMPRSS4 (11748680_a_at) / RFU FAM212B (11763350_a_at) / Fold change /veh FAM212B (11763350_a_at) / RFU PLEKHG5 (11743358_a_at) / Fold change /veh PLEKHG5 (11743358_a_at) / RFU ZSCAN30 (11745921_a_at) / Fold change /veh ZSCAN30 (11745921_a_at) / RFU CMKLR1 (11741424_a_at) / Fold change /veh CMKLR1 (11741424_a_at) / RFU LOC101060620 /// MAPK8IP1 (11723275_at) / Fold change /veh LOC101060620 /// MAPK8IP1 (11723275_at) / RFU SPTSSB (11747773_x_at) / Fold change /veh SPTSSB (11747773_x_at) / RFU PRSS12 (11739890_at) / Fold change /veh PRSS12 (11739890_at) / RFU BIN1 (11741810_x_at) / Fold change /veh BIN1 (11741810_x_at) / RFU WNT11 (11732464_a_at) / Fold change /veh WNT11 (11732464_a_at) / RFU C10orf10 (11716521_a_at) / Fold change /veh C10orf10 (11716521_a_at) / RFU C5orf56 (11738089_at) / Fold change /veh C5orf56 (11738089_at) / RFU CYB561 (11721691_x_at) / Fold change /veh CYB561 (11721691_x_at) / RFU ANKRD19P (11752326_a_at) / Fold change /veh ANKRD19P (11752326_a_at) / RFU OR2T12 /// OR2T33 /// OR2T8 (11738714_s_at) / Fold change /veh OR2T12 /// OR2T33 /// OR2T8 (11738714_s_at) / RFU VCAN (11748164_a_at) / Fold change /veh VCAN (11748164_a_at) / RFU JSRP1 (11732532_at) / Fold change /veh JSRP1 (11732532_at) / RFU KRTAP10-11 (11738290_x_at) / Fold change /veh KRTAP10-11 (11738290_x_at) / RFU MYO3A (11730013_a_at) / Fold change /veh MYO3A (11730013_a_at) / RFU EBF3 (11725865_a_at) / Fold change /veh EBF3 (11725865_a_at) / RFU CAMK2N1 (11719241_x_at) / Fold change /veh CAMK2N1 (11719241_x_at) / RFU C5orf56 (11738088_a_at) / Fold change /veh C5orf56 (11738088_a_at) / RFU OLFML3 (11715873_a_at) / Fold change /veh OLFML3 (11715873_a_at) / RFU LOC100653217 /// NTM (11731650_a_at) / Fold change /veh LOC100653217 /// NTM (11731650_a_at) / RFU MAPK11 (11762145_a_at) / Fold change /veh MAPK11 (11762145_a_at) / RFU FIZ1 (11724087_x_at) / Fold change /veh FIZ1 (11724087_x_at) / RFU OASL (11726364_x_at) / Fold change /veh OASL (11726364_x_at) / RFU SOX15 (11748057_x_at) / Fold change /veh SOX15 (11748057_x_at) / RFU CD79A (11719716_a_at) / Fold change /veh CD79A (11719716_a_at) / RFU HIST1H1D (11736915_at) / Fold change /veh HIST1H1D (11736915_at) / RFU CASKIN2 (11723855_a_at) / Fold change /veh CASKIN2 (11723855_a_at) / RFU LOC730098 (11760151_x_at) / Fold change /veh LOC730098 (11760151_x_at) / RFU OR4N2 (11742367_at) / Fold change /veh OR4N2 (11742367_at) / RFU PRRT2 (11749266_a_at) / Fold change /veh PRRT2 (11749266_a_at) / RFU SNX32 (11753110_a_at) / Fold change /veh SNX32 (11753110_a_at) / RFU CDHR5 (11726645_a_at) / Fold change /veh CDHR5 (11726645_a_at) / RFU RCAN1 (11760418_a_at) / Fold change /veh RCAN1 (11760418_a_at) / RFU FAM167A (11723789_a_at) / Fold change /veh FAM167A (11723789_a_at) / RFU FAM26E (11764081_at) / Fold change /veh FAM26E (11764081_at) / RFU ISYNA1 (11749810_s_at) / Fold change /veh ISYNA1 (11749810_s_at) / RFU ACY1 (11761880_at) / Fold change /veh ACY1 (11761880_at) / RFU 11764098_at / Fold change /veh 11764098_at / RFU SAMD14 (11745864_x_at) / Fold change /veh SAMD14 (11745864_x_at) / RFU NPB (11741838_a_at) / Fold change /veh NPB (11741838_a_at) / RFU TMPRSS6 (11731388_a_at) / Fold change /veh TMPRSS6 (11731388_a_at) / RFU KRTAP10-2 (11738614_at) / Fold change /veh KRTAP10-2 (11738614_at) / RFU ARHGAP8 /// PRR5-ARHGAP8 (11727945_x_at) / Fold change /veh ARHGAP8 /// PRR5-ARHGAP8 (11727945_x_at) / RFU KRTAP5-7 /// NADSYN1 (11734609_at) / Fold change /veh KRTAP5-7 /// NADSYN1 (11734609_at) / RFU RASL12 (11751679_a_at) / Fold change /veh RASL12 (11751679_a_at) / RFU CDKN2B (11736163_a_at) / Fold change /veh CDKN2B (11736163_a_at) / RFU PRF1 (11729649_at) / Fold change /veh PRF1 (11729649_at) / RFU, ZNF638 /// ZNF638-IT1 / Fold change vs veh, ZNF638 /// ZNF638-IT1 / RFU, PANK3 / Fold change vs veh, PANK3 / RFU, SH3YL1 / Fold change vs veh, SH3YL1 / RFU, ZEB2 / Fold change vs veh, ZEB2 / RFU, NRIP1 / Fold change vs veh, NRIP1 / RFU, PTTG1IP / Fold change vs veh, PTTG1IP / RFU, CAPN2 / Fold change vs veh, CAPN2 / RFU, MED14 / Fold change vs veh, MED14 / RFU, SNORA58 / Fold change vs veh, SNORA58 / RFU, C1orf63 / Fold change vs veh, C1orf63 / RFU, LRRFIP1 / Fold change vs veh, LRRFIP1 / RFU, NDUFAF7 / Fold change vs veh, NDUFAF7 / RFU, SLC12A2 / Fold change vs veh, SLC12A2 / RFU, IBTK / Fold change vs veh, IBTK / RFU, ESF1 / Fold change vs veh, ESF1 / Fold change vs veh, TMEM50B / RFU, TAOK1 / Fold change vs veh, TAOK1 / RFU, ACBD3 / Fold change vs veh, ACBD3 / RFU, TMA16 / Fold change vs veh, TMA16 / RFU, RWDD3 / Fold change vs veh, RWDD3 / RFU, BCAT1 / Fold change vs veh, BCAT1 / RFU, EDEM3 / Fold change vs veh, EDEM3 / RFU, TMEM33 / Fold change vs veh, TMEM33 / RFU, WDR75 / Fold change vs veh, WDR75 / RFU, AHCTF1 / Fold change vs veh, AHCTF1 / RFU, TFRC / Fold change vs veh, TFRC / RFU, ZDHHC17 / Fold change vs veh, ZDHHC17 / RFU, NOM1 / Fold change vs veh, NOM1 / RFU, ARL8B / Fold change vs veh, ARL8B / RFU, ZBTB11 / Fold change vs veh, ZBTB11 / RFU, TAMM41 / Fold change vs veh, TAMM41 / RFU, KIAA1704 /// LOC100996395 / Fold change vs veh, KIAA1704 /// LOC100996395 / RFU, ING1 / Fold change vs veh, ING1 / RFU, TRMT61B / Fold change vs veh, TRMT61B / RFU, FUBP3 / Fold change vs veh, FUBP3 / RFU, TP53 / Fold change vs veh, TP53 / RFU, TNKS2 / Fold change vs veh, TNKS2 / RFU, ZFP14 / Fold change vs veh, ZFP14 / RFU, ACTR2 / Fold change vs veh, ACTR2 / RFU, PPP3R1 / Fold change vs veh, PPP3R1 / RFU, PIK3R1 / Fold change vs veh, PIK3R1 / RFU, HNRNPA1 / Fold change vs veh, HNRNPA1 / RFU, RNF170 / Fold change vs veh, RNF170 / RFU, ZNF28 / Fold change vs veh, ZNF28 / RFU, RNGTT / Fold change vs veh, RNGTT / RFU, OGT / Fold change vs veh, OGT / RFU, BRD1 / Fold change vs veh, BRD1 / RFU, MARS / Fold change vs veh, MARS / RFU, ZNF655 / Fold change vs veh, ZNF655 / RFU, FAHD1 / Fold change vs veh, FAHD1 / RFU, BDP1 / Fold change vs veh, BDP1 / RFU, LRRCC1 / Fold change vs veh, LRRCC1 / RFU, ARID1A / Fold change vs veh, ARID1A / RFU, ZNF146 / Fold change vs veh, ZNF146 / RFU, ZNF330 / Fold change vs veh, ZNF330 / RFU, GPN3 / Fold change vs veh, GPN3 / RFU, C9orf123 / Fold change vs veh, C9orf123 / RFU, N4BP2L2 / Fold change vs veh, N4BP2L2 / RFU, ARFIP1 / Fold change vs veh, ARFIP1 / RFU, FAM179B / Fold change vs veh, FAM179B / RFU, BCL10 / Fold change vs veh, BCL10 / RFU, UHRF1BP1L / Fold change vs veh, UHRF1BP1L / RFU, BET1 / Fold change vs veh, BET1 / RFU, CNOT2 / Fold change vs veh, CNOT2 / RFU, ZNF268 / Fold change vs veh, ZNF268 / Fold change vs veh, ZNF507 / RFU, DGCR2 / Fold change vs veh, DGCR2 / RFU, WDSUB1 / Fold change vs veh, WDSUB1 / Fold change vs veh, HSP90B1 /// MIR3652 / RFU, ADSS / Fold change vs veh, ADSS / RFU, GK / Fold change vs veh, GK / RFU, ZNF148 / Fold change vs veh, ZNF148 / RFU, TAF9 / Fold change vs veh, TAF9 / RFU, SLC1A5 / Fold change vs veh, SLC1A5 / RFU, SLMO2 / Fold change vs veh, SLMO2 / RFU, ABCC4 / Fold change vs veh, ABCC4 / RFU, LOC101060439 /// RAP1B / Fold change vs veh, LOC101060439 /// RAP1B / RFU, RFX7 / Fold change vs veh, RFX7 / RFU, GTPBP10 / Fold change vs veh, GTPBP10 / RFU, CNEP1R1 / Fold change vs veh, CNEP1R1 / RFU, BIVM-ERCC5 /// ERCC5 / Fold change vs veh, BIVM-ERCC5 /// ERCC5 / RFU, ILF3 / Fold change vs veh, ILF3 / RFU 11762660_at / Fold change /veh 11762660_at / RFU VCAN (11757783_s_at) / Fold change /veh VCAN (11757783_s_at) / RFU DDX43 (11728927_at) / Fold change /veh DDX43 (11728927_at) / RFU KRT8 (11758188_x_at) / Fold change /veh KRT8 (11758188_x_at) / RFU NKD1 (11759106_at) / Fold change /veh NKD1 (11759106_at) / RFU SRD5A1 (11742802_a_at) / Fold change /veh SRD5A1 (11742802_a_at) / RFU TPSAB1 /// TPSB2 (11721975_s_at) / Fold change /veh TPSAB1 /// TPSB2 (11721975_s_at) / RFU GSTM3 (11746129_a_at) / Fold change /veh GSTM3 (11746129_a_at) / RFU IL23R (11737362_x_at) / Fold change /veh IL23R (11737362_x_at) / RFU TMEM51 (11727254_a_at) / Fold change /veh TMEM51 (11727254_a_at) / RFU PIWIL2 (11732686_x_at) / Fold change /veh PIWIL2 (11732686_x_at) / RFU ORM1 (11744905_x_at) / Fold change /veh ORM1 (11744905_x_at) / RFU CCDC152 (11743942_at) / Fold change /veh CCDC152 (11743942_at) / RFU ECM1 (11717891_a_at) / Fold change /veh ECM1 (11717891_a_at) / RFU IL23R (11748794_a_at) / Fold change /veh IL23R (11748794_a_at) / RFU TNFAIP8L3 (11732012_x_at) / Fold change /veh TNFAIP8L3 (11732012_x_at) / RFU MBOAT4 (11741988_at) / Fold change /veh MBOAT4 (11741988_at) / RFU 11764193_at / Fold change /veh 11764193_at / RFU TMEM53 (11763286_at) / Fold change /veh TMEM53 (11763286_at) / RFU MAGEB2 (11727129_at) / Fold change /veh MAGEB2 (11727129_at) / RFU TMEM200A (11744735_a_at) / Fold change /veh TMEM200A (11744735_a_at) / RFU CCDC152 (11751479_a_at) / Fold change /veh CCDC152 (11751479_a_at) / RFU FAM211A (11726209_a_at) / Fold change /veh FAM211A (11726209_a_at) / RFU RGS16 (11746705_a_at) / Fold change /veh RGS16 (11746705_a_at) / RFU VCAN (11755009_s_at) / Fold change /veh VCAN (11755009_s_at) / RFU RHOB (11743442_s_at) / Fold change /veh RHOB (11743442_s_at) / RFU RGS16 (11720943_a_at) / Fold change /veh RGS16 (11720943_a_at) / RFU RGS16 (11720944_at) / Fold change /veh RGS16 (11720944_at) / RFU, VPS4B / Fold change vs veh, VPS4B / RFU, CREB1 / Fold change vs veh, CREB1 / RFU, DNAJC13 / Fold change vs veh, DNAJC13 / RFU, GNAQ / Fold change vs veh, GNAQ / RFU, CDK5R1 / Fold change vs veh, CDK5R1 / RFU, ZRANB3 / Fold change vs veh, ZRANB3 / RFU, CUL4A / Fold change vs veh, CUL4A / RFU, CCNY / Fold change vs veh, CCNY / RFU, UFL1 / Fold change vs veh, UFL1 / RFU, COG3 / Fold change vs veh, COG3 / RFU, DIAPH2 / Fold change vs veh, DIAPH2 / RFU, SKA2 / Fold change vs veh, SKA2 / RFU, AFF3 / Fold change vs veh, AFF3 / RFU, LMF1 / Fold change vs veh, LMF1 / RFU, IPO11 / Fold change vs veh, IPO11 / RFU, DFFB / Fold change vs veh, DFFB / RFU, FOXP1 / Fold change vs veh, FOXP1 / RFU, CARD8 / Fold change vs veh, CARD8 / RFU, STRN3 / Fold change vs veh, STRN3 / RFU, ADK / Fold change vs veh, ADK / RFU, RASSF2 / Fold change vs veh, RASSF2 / RFU, WIPF1 / Fold change vs veh, WIPF1 / RFU, LARP1B / Fold change vs veh, LARP1B / RFU, RASA1 / Fold change vs veh, RASA1 / RFU, RB1 / Fold change vs veh, RB1 / RFU, PPFIA1 / Fold change vs veh, PPFIA1 / RFU, MAT2A / Fold change vs veh, MAT2A / RFU, CCT5 / Fold change vs veh, CCT5 / RFU, WDR92 / Fold change vs veh, WDR92 / RFU, CUX1 / Fold change vs veh, CUX1 / RFU, TTC7A / Fold change vs veh, TTC7A / RFU, TMEM135 / Fold change vs veh, TMEM135 / RFU, DEPTOR / Fold change vs veh, DEPTOR / RFU, CPM / Fold change vs veh, CPM / RFU, DNAJB6 / Fold change vs veh, DNAJB6 / RFU, CACNA2D3 / Fold change vs veh, CACNA2D3 / RFU, DTX4 / Fold change vs veh, DTX4 / RFU, TFCP2 / Fold change vs veh, TFCP2 / RFU, GMCL1 /// GMCL1P1 / Fold change vs veh, GMCL1 /// GMCL1P1 / RFU, AEBP2 / Fold change vs veh, AEBP2 / RFU, SNHG1 /// SNORD22 /// SNORD25 /// SNORD26 /// SNORD27 /// SNORD28 /// SNORD29 /// SNORD31 / Fold change vs veh, SNHG1 /// SNORD22 /// SNORD25 /// SNORD26 /// SNORD27 /// SNORD28 /// SNORD29 /// SNORD31 / Fold change (Aza/veh), C12orf56 (ProbeSet 11735607_a_at) / Fold change (ACY-1035/veh), C12orf56 (ProbeSet 11735607_a_at) / Fold change (Aza/veh), FGFR1OP (ProbeSet 11751329_s_at) / Fold change (ACY-1035/veh), FGFR1OP (ProbeSet 11751329_s_at) / Fold change (Aza/veh), VPS36 (ProbeSet 11739960_a_at) / Fold change (ACY-1035/veh), VPS36 (ProbeSet 11739960_a_at) / RFU SYPL1 (11715823_x_at) / Fold change /veh SYPL1 (11715823_x_at) / RFU IGFBP7 (11715501_s_at) / Fold change /veh IGFBP7 (11715501_s_at) / RFU REEP3 (11722064_at) / Fold change /veh REEP3 (11722064_at) / RFU IGLL1 (11728026_x_at) / Fold change /veh IGLL1 (11728026_x_at): dose or concentration left out as unconfirmed
Settings: ProbeSet 11722302_a_at; LIST B

Nc1ccc(-c2cccs2)cc1NC(=O)c1ccc2c(c1)cc(C1CC1)n2CCN1CCOCC1 [ACY-1035]
Fold change vs veh, LRRFIP1: 0.98
